Assay results: USRE29226E, “Preparation of carboxylate and sulfonate salts of 1-cis-(3-chloro-2-propenyl)-3,5,7-triaza-1-azoniatricyclo(3.3.1.1^3, 7)decane-II” (The Dow Chemical Company, priority 1976, dated 1977)
Structures can show the parent of a compound that is named as a salt. Where two headings read alike, the source gives them in different places.

Columns and labels:
Type in all cases: cell-based
S. typhosa = test: conventional agar dilution test, S. typhosa; details: St = S. typhosa, complete growth inhibition
From the text: (§1) In representative operations, the products of the invention when tested for antimicrobial activity using conventional agar dilution tests gave complete growth inhibition against the following organisms at the indicated concentrations in parts per million:
(§2) Minimum Inhibitory Concentration, ppm

P. chrysogenum = test: conventional agar dilution test, P. chrysogenum; details: Pen = P. chrysogenum
From the text: as §1, §2

A. niger = test: conventional agar dilution test, A. niger; details: An = A. niger, complete growth inhibition; for MIC: Aspergillus niger, read-out: Minimum Inhibitory Concentration
From the text: as §1, §2

A. aerogenes = test: conventional agar dilution test, A. aerogenes; details: Aa = A. aerogenes, complete growth inhibition
From the text: as §1, §2

S. cerevisiae = test: conventional agar dilution test, S. cerevisiae; details: Sc = S. cerevisiae; for MIC / Minimum Inhibitory Concentration: complete growth inhibition, agar dilution; for MIC: read-out: Minimum Inhibitory Concentration
From the text: as §1, §2

S. aureus = test: conventional agar dilution test, S. aureus; details: Sa = S. aureus, complete growth inhibition
From the text: as §1, §2

C. pelliculosa = test: conventional agar dilution test, C. pelliculosa; details: Cp = C. pelliculosa
From the text: as §1, §2

P. aeruginosa = test: conventional agar dilution test, P. aeruginosa; details: Pa = P. aeruginosa, complete growth inhibition; for MIC: Pseudomonas aeruginosa, read-out: Minimum Inhibitory Concentration
From the text: as §1, §2

[1] = complete growth inhibition, agar dilution

Row | Compound | MIC (S. typhosa; read-out: Minimum Inhibitory Concentration) [µg/mL] | MIC (P. chrysogenum; Penicillium chrysogenum, complete growth inhibition, agar dilution, read-out: Minimum Inhibitory Concentration) [µg/mL] | MIC (A. niger) [µg/mL] | MIC (A. aerogenes; Klebsiella aerogenes, read-out: Minimum Inhibitory Concentration) [µg/mL] | MIC (S. cerevisiae; Saccharomyces cerevisiae) [µg/mL] | MIC (S. aureus; Staphylococcus aureus, read-out: Minimum Inhibitory Concentration) [µg/mL] | inhibition at 500 ppm (C. pelliculosa) | MIC (P. aeruginosa) [µg/mL] | Minimum Inhibitory Concentration (S. typhosa) [ppm] | Minimum Inhibitory Concentration (P. chrysogenum; [1]) [ppm] | Minimum Inhibitory Concentration (A. aerogenes) [ppm] | Minimum Inhibitory Concentration (S. aureus) [ppm] | MIC (C. pelliculosa; Hansenula anomala, complete growth inhibition, agar dilution, read-out: Minimum Inhibitory Concentration) [µg/mL] | Minimum Inhibitory Concentration (A. niger) [ppm] | inhibition at 500 ppm (S. cerevisiae; Saccharomyces cerevisiae, read-out: inhibition at 500 ppm) [%] | Minimum Inhibitory Concentration (P. aeruginosa) [ppm] | inhibition at 500 ppm (S. cerevisiae) | Minimum Inhibitory Concentration (S. cerevisiae) [ppm] | Minimum Inhibitory Concentration (C. pelliculosa; [1]) [ppm] | inhibition at 500 ppm (P. chrysogenum; Penicillium chrysogenum, 500 ppm) [%]
1 | Cl/C=C\C[N+]12CN3CN(CN(C3)C1)C2.[Cl-] [Cis, cis-1-(3-chloro-2-propenyl)-3,5,7-triaza-1-azoniatricyclo(3.3.1.1^3,7)decane chloride, reference compound] | 25 | 250 | > 500 | 50 | 250 | 50 | ± (50% inhibition at 500 ppm) | 100 | – | – | – | – | – | – | – | – | – | – | – | –
2 | Cl/C=C\C[N+]12CN3CN(CN(C3)C1)C2 [Example 1, Mono-benzoate Salt of Cis] | – | – | > 500 | – | > 500 | – | – | 250 | 50 | 500 | 100 | 100 | > 500 | – | – | – | – | – | – | –
3 | Cl/C=C\C[N+]12CN3CN(CN(C3)C1)C2 [Example 2, p-Toluene Sulfonate Mono-Salt of Cis] | – | – | – | – | – | – | ± (50% inhibition at 500 ppm) | – | 50 | 500 | 100 | 250 | – | > 500 | 50 | 250 | – | – | – | –
4 | Cl/C=C\C[N+]12CN3CN(CN(C3)C1)C2 [Ia] | – | – | – | – | – | – | ± (50% inhibition at 500 ppm) | – | 50 | > 500 | 100 | 100 | – | > 500 | – | 250 | ± (50% inhibition at 500 ppm) | – | – | –
5 | Cl/C=C\C[N+]12CN3CN(CN(C3)C1)C2 [Ib] | – | – | – | – | – | – | .-+. (>90% inhibition at 500 ppm) | – | 50 | 500 | 75 | 75 | – | > 500 | – | 250 | ± (50% inhibition at 500 ppm) | – | – | –
6 | Cl/C=C\C[N+]12CN3CN(CN(C3)C1)C2 [Ic] | – | – | – | – | – | – | ± (50% inhibition at 500 ppm) | – | 100 | 500 | 100 | 100 | – | > 500 | – | 250 | – | 500 | – | –
7 | Cl/C=C\C[N+]12CN3CN(CN(C3)C1)C2 [Id] | – | – | – | – | – | – | .-+. (>90% inhibition at 500 ppm) | – | 50 | 500 | 250 | 250 | – | > 500 | – | 250 | – | 500 | – | –
8 | Cl/C=C\C[N+]12CN3CN(CN(C3)C1)C2 [Ie] | – | – | – | – | – | – | – | – | 25 | > 500 | 250 | 75 | – | > 500 | – | 250 | – | > 500 | > 500 | –
9 | Cl/C=C\C[N+]12CN3CN(CN(C3)C1)C2 [If] | – | – | – | – | – | – | – | – | 75 | 100 | 250 | 250 | – | 250 | – | 250 | – | 500 | 250 | –
10 | Cl/C=C\C[N+]12CN3CN(CN(C3)C1)C2 [Ig] | – | – | – | – | – | – | – | – | 50 | – | 250 | 50 | – | > 500 | – | 250 | – | > 500 | > 500 | > 90
11 | Cl/C=C\C[N+]12CN3CN(CN(C3)C1)C2 [Ih] | – | – | – | – | – | – | – | – | 75 | > 500 | 250 | 250 | – | > 500 | – | 250 | – | > 500 | > 500 | –
12 | Cl/C=C\C[N+]12CN3CN(CN(C3)C1)C2 [Ii] | – | – | – | – | – | – | – | – | 50 | 100 | 250 | 250 | – | 500 | – | 250 | – | 500 | 250 | –
13 | Cl/C=C\C[N+]12CN3CN(CN(C3)C1)C2 [Ij] | – | – | – | – | – | – | – | – | 75 | 250 | 75 | 250 | – | 500 | – | 250 | – | 500 | 500 | –
